# According to paper PMC9785280, “Synthesis, Antiproliferative Evaluation and QSAR Analysis of Novel Halogen- and Amidino-Substituted Benzothiazoles and Benzimidazoles” (International Journal of Molecular Sciences, 2022):
# Where two headings read alike, the source gives them in different places.
# Assays:
# [1] = tested on: HL60 (promyelocytic leukemia) cells; test: MTT antiproliferative assay, HL60; assay type: cell-based, human; conditions: for IC50: Homo sapiens, HL-60, 72 h, MTT, mean ± SD of three independent experiments; for SI (BJ) HL60: SI = IC50 BJ / IC50 HL60; for SI (MDCK) HL60: SI = IC50 MDCK1 / IC50 HL60
# Method: (§1) The growth inhibition activity was assessed according to the slightly modified procedure performed at the National Cancer Institute, Developmental Therapeutics Program.
# (§2) Examined compounds were dissolved in DMSO (1 × 10^−2 M). The experiments were carried out on seven human tumor cell lines and two normal cell lines. The following cell lines were used: HeLa (human cervical adenocarcinoma; purchased from ATCC), CaCo-2 (human colorectal adenocarcinoma), HuT78 (T-cell lymphoma), THP-1 (acute monocytic leukemia), SW620 (colorectal adenocarcinoma, metastatic), MDA-MB-231 (human breast adenocarcinoma), HL60 (promyelocytic leukemia cell line), foreskin fibroblast cells (BJ) and MDCK1 (Madine–Darby canine kidney fibroblast like cells). MDCK1 cells were used between 24 and 26 passages.
# (§3) Adherent cells were cultured in the Dulbecco’s modified Eagle medium—DMEM (Gibco, EU) supplemented with 10 % heat-inactivated fetal bovine serum (FBS, Gibco, EU), 2 mM glutamine, and 100 U/0.1 mg penicillin/streptomycin. Cells on suspension were cultured in RPMI 1640 (Gibco, EU) medium supplemented with 10 % FBS (Gibco, EU), 2 mM glutamine, 1 mM sodium pyruvate, 10 mM HEPES. Cells were grown in humidified atmosphere under the conditions of 37 °C/5% of CO2 gas in the CO2 incubator (IGO 150 CELLlife^TM, JOUAN, Thermo Fisher Scientific, Waltham, MA, USA). A erythrosin B (Sigma-Aldrich, St. Louis, MO, USA) dye exclusion method was used to assess cell viability before plating.
# (§4) Adherent cells (HeLa, CaCo-2, MCF-7 and MDCK-1) were plated in 96-well flat bottom plates (Greiner, Frickenhausen, Austria) at a concentration of 2 × 10^4 cells/mL. Suspension cells (THP-1 and HuT78) were plated in 96-well microtiter plates (Sarstead, Newton, USA) at a concentration of 1 × 10^5 cells/mL. Twenty-four hours later, cells were treated with test agents in […] 10-fold dilutions ([…] to 10^−4 M) and incubated for further 72 h. Working dilutions were freshly prepared on the day of testing. The solvent was also tested for eventual inhibitory activity by adjusting its concentration to be the same as in working concentrations. After 72 h of incubation, the cell growth rate was evaluated by performing the MTT assay, which detects dehydrogenase activity in viable cells. For this purpose, upon completion of the incubation period, growth medium was discarded and 50 μL of MTT was added to each well at a concentration of 5 mg/mL. After four hours of incubation at 37 °C, water insoluble MTT-formazan crystals were dissolved in 150 μL of dimethyl-sulfoxide (DMSO) for adherent cells, and in 10 % SDS with 0.01 M/L HCl for cells grown in suspension. The absorbance (OD, optical density) was measured on a microplate reader (iMark, BIO RAD, Hercules, CA, USA) at 595 nm.
# (§5) Percent of life cells was calculated as follows: % = OD (sample)–OD (background)/OD (control)–OD (background) × 100.
# (§6) Optical density (OD) of background for adherent cells is the OD of MTT solution and DMSO; OD (background) for suspension cells is OD of the culture medium with MTT and 10% SDS with 0.01 M/L HCl; OD (control) is the OD of the cells growth without tested compounds.
# (§7) Calculation of GI50 value curves and QC analysis is performed by using the Excel tools and GraphPadPrism software (La Jolla, CA), v. 5.03. Briefly, individual concentration effect curves are generated by plotting the logarithm of the concentration of tested compounds(X) vs. corresponding percent inhibition values (Y) using least squares fit. The best fit GI50 values are calculated using Log (inhibitor) versus normalized response—Variable slope equation, where Y Ľ 100/(1 ţ 10 ((LogIC50 _ X) * HillSlope)). QC criteria parameters (Z0, S:B, R2, HillSlope) were checked for every GI50 curve.
# [2] = tested on: HuT78 (T-cell lymphoma) cells; test: MTT antiproliferative assay, HuT78; assay type: cell-based, human; conditions: for IC50: 72 h, MTT, mean ± SD of three independent experiments; for SI (MDCK) HuT78: SI = IC50 MDCK1 / IC50 HuT78; for SI (BJ) HuT78: SI = IC50 BJ / IC50 HuT78
# In short: (§8)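 Readout: MTT formazan absorbance at 595 nm after a 72 h compound exposure (10^−7–10^−4 M, 10-fold steps). Viability is expressed as background-corrected % of untreated control, and GI50 is fitted by a variable-slope curve.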
# [3] = tested on: HeLa (cervical adenocarcinoma) cells; test: MTT antiproliferative assay, HeLa; assay type: cell-based; conditions: Homo sapiens, 72 h, mean ± SD of three independent experiments
# In short: as §8
# [4] = tested on: THP1 (human monocytic leukemia) cells; test: MTT antiproliferative assay, THP1; assay type: cell-based; conditions: for IC50: Homo sapiens, THP-1, 72 h, MTT, mean ± SD of three independent experiments; for SI (BJ) THP1: SI = IC50 BJ / IC50 THP1; for SI (MDCK) THP1: SI = IC50 MDCK1 / IC50 THP1
# Method: as §1, §2, §3, §4, §5, §6, §7
# [5] = tested on: CaCo-2 (colon adenocarcinoma) cells; test: MTT antiproliferative assay, CaCo-2; assay type: cell-based, human; conditions: for IC50: Homo sapiens, Caco-2, 72 h, MTT, mean ± SD of three independent experiments; for SI (MDCK) CaCo-2: SI = IC50 MDCK1 / IC50 CaCo-2
# In short: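 CaCo-2 cells, plated at 2 × 10^4 cells/mL in DMEM with 10 % FBS at 37 °C/5% CO2, were treated 24 h later with five 10-fold dilutions (10^−7 to 10^−4 M) for 72 h. Viability was measured by MTT (4 h, formazan dissolved in DMSO, OD 595 nm) against background and untreated controls. GI50 came from log-concentration versus percent-inhibition fits.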
# [6] = tested on: SW620 (colorectal adenocarcinoma, metastatic) cells; test: MTT antiproliferative assay, SW620; assay type: cell-based, human; conditions: for IC50: Homo sapiens, SW-620
# Method: as §1, §2, §3, §4, §5, §6, §7
# [7] = tested on: MDA-MB-231 (human breast adenocarcinoma) cells; test: MTT antiproliferative assay, MDA-MB-231; assay type: cell-based; conditions: for IC50: Homo sapiens, MDA-MB-231, 72 h, MTT, mean ± SD of three independent experiments; for SI (MDCK) MDA-MB-231: SI = IC50 MDCK1 / IC50 MDA-MB-231
# Method: as §1, §2, §3, §4, §5, §6, §7
# [8] = tested on: MDCK1 (Madin–Darby canine kidney) cells; test: MTT antiproliferative assay, non-tumor MDCK1 cells; assay type: cell-based; conditions: Canis lupus familiaris, MDCK1, 72 h, mean ± SD of three independent experiments, normal cells
# In short: as §8
# [9] = tested on: human fibroblasts (BJ); test: MTT antiproliferative assay, normal BJ fibroblasts; assay type: cell-based; conditions: for IC50: Homo sapiens, Fibroblast, 72 h, MTT, mean ± SD of three independent experiments, normal cells
# In short: as §8
# [10] = 72 h, MTT, mean ± SD of three independent experiments, read-out: IC50 (µM) SW620
Compound,IC50 [1] [µM],"IC50 ([2]; Homo sapiens, HuT78, 72 h) [µM]",SI (MDCK) HuT78 [2],IC50 [3] [µM],IC50 [4] [µM],IC50 [5] [µM],"IC50 [6, 10] [µM]",IC50 [7] [µM],SI (BJ) HL60 [1],SI (MDCK) HL60 [1],IC50 [8] [µM],SI (BJ) HuT78 [2],SI (MDCK) THP1 [4],IC50 [9] [µM],other results
"Cl.c1cc(-c2nc3ccc(C4=NCCN4)cc3s2)ccc1OCc1c[nH]nn1 [36a, 2-(4-((1H-1,2,3-triazol-4-yl)methoxy)phenyl)-6-(4,5-dihydro-1H-imidazol-2-yl)benzothiazole hydrochloride]",18.8 ± 1.1,4.4 ± 3.9,7.23,62.6 ± 22,20.4 ± 3.3,24.8 ± 9.2,5.6 ± 1.2,33 ± 4.9,,,,,,,"melting point: 218 to 221 °C; IC50 ([6]; span over SW620, MDA-MB-231, HL60, THP1, read-out: IC50 values on additional set of tumor cells): 5.6 to 33 µM"
O=C(COc1ccc(-c2nc3ccc(C4=NCCCN4)cc3s2)cc1F)c1ccccc1 [38b],15.8 ± 2.3,4 ± 0.9,6.65,22.1 ± 1.2,14.7 ± 4.1,19.4 ± 4.7,30.5 ± 9.2,42.4 ± 7.2,2.04,1.68,26.6 ± 3.1,8.05,1.8,32.2 ± 2.8,SI (BJ) THP1 [4]: 2.19; SI (BJ) CaCo-2 ([5]; SI = IC50 BJ / IC50 CaCo-2): 1.66; SI (MDCK) CaCo-2 [5]: 1.37
COc1cc(-c2nc3ccc(C4=NCCCN4)cc3[nH]2)ccc1OCc1cn(CCN2CCOCC2)nn1 [46c],50.7 ± 20.5,4.1,19.6,> 100,> 100,> 100,> 100,> 100,1.97,1.97,> 100,,,> 100,IC50 [2]: 5.1 ± 4.2 µM; toxicity to normal BJ cells (in words) [9]: not toxic
O=C(COc1ccc(-c2nc3ccc(C4=NCCCN4)cc3[nH]2)cc1)c1ccccc1 [42a],33.2 ± 1.8,7 ± 5.2,14.29,> 100,44.5 ± 5.3,> 100,> 100,76.3 ± 11.8,3.01,3.01,> 100,14.29,2.25,> 100,SI (BJ) THP1 [4]: 2.25; SI (BJ) MDA-MB-231 ([7]; SI = IC50 BJ / IC50 MDA-MB-231): 1.31; SI (MDCK) MDA-MB-231 [7]: 1.31
c1ccc(COc2ccc(-c3nc4ccc(C5=NCCCN5)cc4[nH]3)cc2)nc1 [43a],40.4 ± 12,28.6 ± 3.9,3.5,> 100,29.7 ± 8.6,> 100,> 100,> 100,,2.48,> 100,,3.37,33 ± 20.3,
COc1cc(-c2nc3ccc(C4=NCCCN4)cc3s2)ccc1OCc1ccccn1 [39c],31.1 ± 3,12.7 ± 0.9,7.87,> 100,69.7 ± 6.3,34.7 ± 2.8,34.2 ± 7.1,38.5 ± 1.6,,3.22,> 100,3,1.43,38.1 ± 1.4,SI (MDCK) CaCo-2 [5]: 2.87; SI (MDCK) SW620 ([6]; SI = IC50 MDCK1 / IC50 SW620): 2.92; SI (MDCK) MDA-MB-231 [7]: 2.6
"COc1cc(-c2nc3ccc(C4=NCCN4)cc3s2)ccc1OCc1c[nH]nn1.Cl [36c, 2-(3-Methoxy-4-((1H-1,2,3-triazol-4-yl)methoxy)phenyl)-6-(4,5-dihydro-1H-imidazol-2-yl)benzothiazole hydrochloride]",> 100,1.6 ± 0.8,62.5,> 100,> 100,> 100,> 100,> 100,,,> 100,,,> 100,
O=C(COc1ccc(-c2nc3ccc(C4=NCCCN4)cc3[nH]2)cc1F)c1ccccc1 [42b],44.4 ± 12.6,11.9 ± 3.6,5.66,> 100,> 100,> 100,92.7 ± 34.3,84.5 ± 18.3,,1.51,67.3 ± 12.7,3.95,,47 ± 3.3,
